“And” between values parts separate entries of the source, which are not always exact repeats. Equal entries are not always repeated. Where two headings read alike, the source gives them in different places. Marks after values point to notes of the source that are not given here. Values belong to the molecule of their own block, whether it stands above or below them.
What was measured:
[1] = Rectal PK study: IQB4012 gel; assay type: in vivo, pigtailed macaques; settings: for median drug concentration (min-max), Rectal fluids / median drug concentration (min-max), Rectal tissues: N = 6; for levels in blood plasma: below the LLOQ, data not shown; for concentration at 2 h / concentration at 4 h / concentration at 24 h: female, pigtailed macaque, other: rectal
[2] = in vivo
[3] = Release of drug from the gel into a liquid sink; assay type: in vitro ADME; settings: IQB4012 gel, 1% (w/w) of each drug
[4] = Vaginal PK study: IQB4012 gel; settings: for concentration at 2 h / concentration at 4 h / concentration at 24 h: female, pigtailed macaque, other: vaginal
[5] = rectal gel application, 1 or 4 ml
[6] = vaginal fluid, distal, 1.5 ml gel
[7] = vaginal fluid, proximal, 0.5 ml
[8] = vaginal fluid, proximal, 1.5 ml gel
[9] = vaginal tissue, distal, 1.5 ml gel
[10] = vaginal tissue, medial, 1.5 ml gel
[11] = vaginal tissue, proximal, 0.5 ml
[12] = vaginal application, below the LLOQ, data not shown

median concentrations in rectal fluids ([1]; 1 ml gel rectally, 2 to 24 h): 10^3–10^5 ng/ml
median drug concentration (min-max), Rectal fluids ([1]; 1 ml gel rectally, 2 h): 93,375 (2480–420,500) ng/ml
median drug concentration (min-max), Rectal fluids ([1]; 1 ml gel rectally, 4 h): 31,000 (545–873,500) ng/ml
median drug concentration (min-max), Rectal tissues ([1]; 1 ml gel rectally, 4 h): 9087 (BLLOQ^2-15,150) ng/g
median drug concentration (min-max), Rectal fluids ([1]; 1 ml gel rectally, 24 h): 2975 (815–22,900) ng/ml
median drug concentration (min-max), Rectal tissues ([1]; 1 ml gel rectally, 24 h): 127 ^* ng/g
median drug concentration (min-max), Rectal fluids ([1]; 4 ml gel rectally, 2 h): 106,500 (54,600–769,000) ng/ml
median drug concentration (min-max), Rectal fluids ([1]; 4 ml gel rectally, 4 h): 53,775 (9570–930,500) ng/ml
median drug concentration (min-max), Rectal tissues ([1]; 4 ml gel rectally, 4 h): 1277 (BLLOQ-51,304) ng/g
median drug concentration (min-max), Rectal fluids ([1]; 4 ml gel rectally, 24 h): 7065 (608–43,750) ng/ml
median drug concentration (min-max), Rectal tissues ([1]; 4 ml gel rectally, 24 h): 566 (BLLOQ-2228) ng/g
levels in blood plasma ([1]; rectal application): < 10 ng/mL
rectal tissue samples with detectable concentrations ([1]; rectal application, both gel volumes (1 and 4 ml)): 10^2–10^3 ng/g
concentrations sampled in rectal tissues [1, 5]: 10^1–10^3 ng/g
levels in rectal tissue biopsies [2]: below LLOQ
plasma concentrations [2]: < 10 ng/mL
release from the gel into a liquid sink (Franz Cell) [3]: 53.93 μg/cm ^3h
SMILES: Cc1cc(C)cc(C(=O)c2c(C(C)C)c(=O)[nH]c(=O)n2CC2CC2)c1 [IQP-0528]

median drug concentration (min-max), Rectal tissues ([1]; 1 ml gel rectally, 24 h): 659 (BLLOQ-3586) ng/g
median drug concentration (min-max), Rectal tissues ([1]; 4 ml gel rectally, 4 h): 393 (BLLOQ-11,464) ng/g
concentration at 2 h ([1]; rectal fluid, 1 ml): 3230 ng/mL
concentration at 4 h ([1]; rectal fluid, 1 ml): 705 ng/mL
concentration at 24 h ([1]; rectal fluid, 1 ml): 132 ng/mL
concentration at 2 h ([1]; rectal fluid, 4 ml): 5060 ng/mL
concentration at 4 h ([1]; rectal fluid, 4 ml): 864 ng/mL
concentration at 24 h ([1]; rectal fluid, 4 ml): 277 ng/mL
concentration at 4 h ([1]; rectal tissue, 1 ml): 811 ng/g
concentration at 24 h ([1]; rectal tissue, 1 ml): 659 ng/g
concentration at 4 h ([1]; rectal tissue, 4 ml): 393 ng/g
concentration at 24 h ([1]; rectal tissue, 4 ml): 1410 ng/g
concentration at 2 h ([1]; pigtailed, rectal fluid, 1 ml): 3230 ng/mL
concentration at 4 h ([1]; pigtailed, rectal fluid, 1 ml): 705 ng/mL
concentration at 24 h ([1]; pigtailed, rectal fluid, 1 ml): 132 ng/mL
concentration at 2 h ([1]; pigtailed, rectal fluid, 4 ml): 5060 ng/mL
concentration at 4 h ([1]; pigtailed, rectal fluid, 4 ml): 864 ng/mL
concentration at 24 h ([1]; pigtailed, rectal fluid, 4 ml): 277 ng/mL
concentration at 4 h ([1]; pigtailed, rectal tissue, 1 ml): 811 ng/g
concentration at 24 h ([1]; pigtailed, rectal tissue, 4 ml): 1410 ng/g
levels in blood plasma ([1]; rectal application): < 10 ng/mL
concentrations sampled in rectal tissues [1, 5]: 10^1–10^3 ng/g
median concentrations in rectal fluids [1, 5]: 10^2–10^3 ng/ml
median drug concentration (min—max), Vaginal fluids, Proximal ([4]; 0.5 ml gel vaginally, 2 h, N = 6): 158,146 (BLLOQ^2-3,025,157) ng/ml
concentration at 2 h ([4]; rectal fluid, 0.5 ml): 80 ng/mL
concentration at 4 h ([4]; rectal fluid, 0.5 ml): 69 ng/mL
concentration at 24 h ([4]; rectal fluid, 0.5 ml): 53 ng/mL
concentration at 2 h ([4]; rectal fluids, 1.5 ml gel): 138 ng/mL
concentration at 4 h ([4]; rectal fluids, 1.5 ml gel): 156 ng/mL
concentration at 24 h ([4]; rectal fluids, 1.5 ml gel): 127 ng/mL
concentration at 2 h ([4]; vaginal fluid, distal, 0.5 ml): 232000 ng/mL
concentration at 4 h ([4]; vaginal fluid, distal, 0.5 ml): 132000 ng/mL
concentration at 24 h ([4]; vaginal fluid, distal, 0.5 ml): 18700 ng/mL
concentration at 2 h ([4]; vaginal fluid, distal, 1.5 ml): 37200 ng/mL
concentration at 4 h [4, 6]: 153000 ng/mL
concentration at 24 h [4, 6]: 57000 ng/mL
concentration at 4 h [4, 7]: 124000 ng/mL
concentration at 24 h [4, 7]: 48900 ng/mL
concentration at 2 h ([4]; vaginal fluid, proximal, 1.5 ml): 30400 ng/mL
concentration at 4 h [4, 8]: 54300 ng/mL
concentration at 24 h [4, 8]: 18000 ng/mL
concentration at 4 h ([4]; vaginal tissue, distal, 0.5 ml): 13400 ng/g
concentration at 24 h ([4]; vaginal tissue, distal, 0.5 ml): 5910 ng/g
concentration at 4 h [4, 9]: 19200 ng/g
concentration at 24 h [4, 9]: 5380 ng/g
concentration at 4 h ([4]; vaginal tissue, medial, 0.5 ml): 8860 ng/g
concentration at 24 h ([4]; vaginal tissue, medial, 0.5 ml): 3550 ng/g
concentration at 4 h [4, 10]: 10200 ng/g
concentration at 24 h [4, 10]: 12200 ng/g
concentration at 4 h [4, 11]: 4490 ng/g
concentration at 24 h [4, 11]: 16900 ng/g
concentration at 4 h ([4]; vaginal tissue, proximal, 1.5 ml gel): 35100 ng/g
median concentrations in rectal fluids ([4]; vaginal application of either volume (0.5 or 1.5 ml), over 24 h): ≤ 200 ng/mL
concentrations in rectal biopsy tissues [4, 12]: < 1 ng/sample
plasma concentrations [4, 12]: < 10 ng/mL
release from the gel into a liquid sink (Franz Cell) [3]: 82.51 μg/cm ^3h
SMILES: C[C@H](Cn1cnc2c(N)ncnc21)OCP(=O)(O)O [TFV, tenofovir]

median drug concentration (min-max), Rectal tissues ([1]; 1 ml gel rectally, 4 h): 176 ng/g and 176 (BLLOQ-207) ng/g
median drug concentration (min-max), Rectal tissues ([1]; 1 ml gel rectally, 24 h): 70 ng/g and 70 (BLLOQ-128) ng/g
median drug concentration (min-max), Rectal tissues ([1]; 4 ml gel rectally, 4 h): 47 ng/g and 47 (BLLOQ-480) ng/g
median drug concentration (min-max), Rectal tissues ([1]; 4 ml gel rectally, 24 h): 81 ng/g and 81 (BLLOQ-131) ng/g
SMILES: C[C@@H](Cn1cnc2c(N)ncnc21)OCP(=O)(O)OP(=O)(O)OP(=O)(O)O [TFV-DP, TFV-diphosphate]

From paper PMC6711467 (Drug delivery and translational research, 2018)
